Results from US20200038399A1, “FORMULATIONS, METHODS, KIT, AND DOSAGE FORMS FOR TREATING BACTERIAL INFECTION” (Motif BioSciences Inc., priority 2016, published 2020).
Read-outs that look alike come from different tables or passages of the source.

Experiments:
S. aureus 101 [1] = test: checkerboard synergy assay with iclaprim; assay type: cell-based, Staphylococcus aureus; details: antibiotic in combination with iclaprim
Experimental: (§1) The synergistic potential of iclaprim against Gram-positive and Gram-negative bacteria was determined using the checkerboard assay as described in Eliopoulos GM and Moellering, Jr. RC (1991), Antimicrobial combinations, pp. 432-492, in V. Lorian (ed.), Antibiotics in laboratory medicine, 3rd Ed., The Williams & Wilkins Co., Baltimore, the entire disclosure of which is herein incorporated by reference, allowing multiple test concentrations of iclaprim to be assayed in the presence of various concentrations of the other antibiotic in microtiter plates. The same growth media and conditions were used as described in 3.2 below.
(§2) Two different dilutions were used for iclaprim depending on the MIC determined for the bacterium. […] Iclaprim and the other antibiotic being tested were also dispensed alone in the last row and in the last column, respectively, as controls.
(§3) The Fractional Inhibitory Concentrations (FIC) for each added agent were calculated and used to determine the sum of FIC (ΣFIC) indicative of the synergistic potential of a given combination as described in Veyssier P. (1999), Inhibiteurs de la dihydrofolate reductase, nitrohétérocycles (furanes) et 8-hydroxyquinoleines, pp. 995-1027, in A. Bryskier (ed.), Antibiotiques agents antibatériens et antifongiques, 1st Ed., Ellipses Edition Marketing SA, Paris, the entire disclosure of which is herein incorporated by reference. Synergy was defined whereby the ΣFIC was <0.5, indifference (no synergy nor antagonism) whereby ΣFIC was ≥0.5 but ≤4, and antagonism whereby ΣFIC was >4. Additivity as a special form of indifference was defined whereby the ΣFIC was ≥0.5 but <1, for example as described in Stevens, D L et al. (1998), In vitro antimicrobial effects of various combinations of penicillin and clindamycin against four strains of Streptococcus pyogenes, J. Antimicrob. Chemother. 42: 1266-1268, the entire disclosure of which is herein incorporated by reference.

S. pneumoniae 1/1 [2] = test: checkerboard synergy assay with iclaprim; assay type: cell-based, Streptococcus pneumoniae; details: antibiotic in combination with iclaprim
Experimental: as §1, §2, §3

[3] = test system: Haemophilus influenzae ATCC 49766; test: checkerboard synergy assay with iclaprim; assay type: cell-based; details: antibiotic in combination with iclaprim; H. influenzae 49766
Experimental: as §1, §2, §3

[4] = test system: Moraxella catarrhalis RA 21; test: checkerboard synergy assay with iclaprim; assay type: cell-based; details: antibiotic in combination with iclaprim; M. catarrhalis RA 21
Experimental: as §1, §2, §3

[5] = test system: Streptococcus pneumoniae ATCC 49619; test: checkerboard synergy assay with iclaprim; assay type: cell-based; details: antibiotic in combination with iclaprim; S. pneumoniae 49619
Experimental: as §1, §2, §3

[6] = test system: Klebsiella pneumoniae ATCC 33495; test: checkerboard synergy assay with iclaprim; assay type: cell-based; details: antibiotic in combination with iclaprim; K. pneumoniae 33495
Experimental: as §1, §2, §3

[7] = test system: Staphylococcus aureus ATCC 25923; test: checkerboard synergy assay with iclaprim; assay type: cell-based; details: antibiotic in combination with iclaprim; S. aureus 25923
Experimental: as §1, §2, §3

S. pneumoniae 1/1 [8] = test: MIC determination; assay type: cell-based, Streptococcus pneumoniae; details: Streptococcus pneumoniae; S. pneumoniae 1/1; 18 hours at 37° C., 5% CO2; read-out: Minimum inhibitory concentrations (MIC)
Experimental: (§4) Minimum inhibitory concentration (MIC) determination.
(§5) In order to choose the appropriate concentrations to be tested in the checkerboard experiments, minimum inhibitory concentrations (MICs) were determined first. […] Table 6) in microtiter plates. Stock solutions (10 mg/ml) of reference antibiotics were prepared in DMSO (except for tobramycin, gentamicin, lomefloxacin, tetracycline) and stored at 4° C. The bacteria were grown in Mueller-Hinton Broth (BBL Mueller-Hinton Broth II, cation adjusted). S. pneumoniae was grown in Mueller-Hinton Broth supplemented with 5% (v/v) lysed sheep blood. For the growth of H. influenzae HTM (Haemophilus test medium) was used containing Mueller-Hinton broth, yeast extract ([…], Difco) and supplemented with NAD and hematin (HTM Supplement, Oxoid SR0158E). M. catarrhalis was grown in Brain Heart Infusion medium (Oxoid). The bacteria were incubated for 18 hours at 37° C. in ambient air except for S. pneumoniae, H. influenzae and M. catarrhalis, which were incubated in the presence of 5% CO2. The MIC was determined as the lowest concentration of an individual drug that lead to no visible growth.

S. aureus 101 [9] = test: MIC determination; assay type: cell-based, Staphylococcus aureus; details: Staphylococcus aureus, 101, 18 h; read-out: Minimum inhibitory concentrations (MIC)
Experimental: as §4, §5

[10] = test system: Haemophilus influenzae ATCC 49766; test: MIC determination; assay type: cell-based; details: Haemophilus influenzae, read-out: Minimum inhibitory concentrations (MIC)
Experimental: as §4, §5

[11] = test system: Moraxella catarrhalis RA 21; test: MIC determination; assay type: cell-based; details: Moraxella catarrhalis, RA21; M. catarrhalis RA 21; 18 hours at 37° C., 5% CO2; read-out: Minimum inhibitory concentrations (MIC)
Experimental: as §4, §5

[12] = test system: Streptococcus pneumoniae ATCC 49619; test: MIC determination; assay type: cell-based; details: Streptococcus pneumoniae, ATCC49619; S. pneumoniae 49619; 18 hours at 37° C., 5% CO2; read-out: Minimum inhibitory concentrations (MIC)
Experimental: as §4, §5

[13] = test system: Klebsiella pneumoniae ATCC 33495; test: MIC determination; assay type: cell-based; details: Klebsiella pneumoniae, ATCC33495; K. pneumonia 33495; 18 hours at 37° C.; read-out: Minimum inhibitory concentrations (MIC)
Experimental: as §4, §5

[14] = test system: Staphylococcus aureus ATCC 25923; test: MIC determination; assay type: cell-based; details: Staphylococcus aureus, ATCC25923; S. aureus 25923; 18 hours at 37° C.; read-out: Minimum inhibitory concentrations (MIC)
Experimental: as §4, §5

[15] = ATCC49766, H. Influenza 49766, 18 hours at 37° C., 5% CO2

| Compound | Σ FIC (S. aureus 101 [1]) | Σ FIC (S. pneumoniae 1/1 [2]) | Con (Conclusion) [3] | Σ FIC [3] | Con (Conclusion) [4] | Σ FIC [4] | Σ FIC [5] | Con (Conclusion) [6] | Σ FIC [6] | Σ FIC [7] | MIC (S. pneumoniae 1/1 [8]) [µg/mL] | MIC (S. aureus 101 [9]) [µg/mL] | MIC ([10]; ATCC49766, 18 h) [µg/mL] | MIC [11] [µg/mL] | MIC [12] [µg/mL] | MIC [13] [µg/mL] | MIC [14] [µg/mL] | MIC [10, 15] [µg/mL] |
| --- | --- | --- | --- | --- | --- | --- | --- | --- | --- | --- | --- | --- | --- | --- | --- | --- | --- | --- |
| CN(C)[C@@H]1C(O)=C(C(N)=O)C(=O)[C@@]2(O)C(O)=C3C(=O)c4c(O)cccc4[C@@](C)(O)[C@H]3C[C@@H]12 [Tetracycline, Tetracyclin] | 1.02-2.50 | 0.75-1.13 | Ad (Additivity (Ad)) | 0.56-1.25 | Ind (Indifference (Ind)) | 1.13-1.50 | 0.75-1.25 | Ad (Additivity (Ad)) | 0.56-1.03 | 2.05-2.48 | 16 | 128 | 0.5 | 0.25 | 0.25 | 128 | 0.5 |  |
| CC[C@H]1OC(=O)[C@H](C)[C@@H](O[C@H]2C[C@@](C)(OC)[C@@H](O)[C@H](C)O2)[C@H](C)[C@@H](O[C@@H]2O[C@H](C)C[C@H](N(C)C)[C@H]2O)[C@](C)(O)C[C@@H](C)/C(=N\OCOCCOC)[C@H](C)[C@@H](O)[C@]1(C)O [Roxithromycin] | 1.01-1.80 | 0.75-1.13 | Ind (Indifference (Ind)) | 1.03-1.50 | Ind (Indifference (Ind)) | 1.03-1.50 | 1.02-1.50 | Ind (Indifference (Ind)) | 1.01-1.50 | 1.06-1.50 | 0.5 | > 128 |  | 0.25 | 0.5 | > 128 | 1 | 16 |
| CCC[C@@H]1C[C@@H](C(=O)N[C@@H]([C@H]2O[C@H](SC)[C@H](O)[C@@H](O)[C@H]2O)[C@H](C)Cl)N(C)C1 [Clindamycin] | 2.03-2.50 | 0.63-1.06 | Ind (Indifference (Ind)) | 1.13-1.50 | Ind (Indifference (Ind)) | 1.00-1.25 | 1.00-1.25 | Ind (Indifference (Ind)) | 1.01-1.50 | 2.02-2.48 | 0.125 | 0.25 |  | 4 | 0.125 | > 128 | 0.25 | 8 |
| CC(=O)O[C@H]1C[C@@]2(C)[C@@H](C[C@@H](O)[C@H]3[C@@]4(C)CC[C@@H](O)[C@@H](C)[C@@H]4CC[C@@]32C)/C1=C(\CCC=C(C)C)C(=O)O [Fusidic acid] | 1.06-1.50 | 1.06-1.50 | Ind (Indifference (Ind)) | 1.06-1.50 | Ind (Indifference (Ind)) | 1.00-1.00 | 1.13-1.50 | Ind (Indifference (Ind)) | 1.00-1.25 | 2.03-2.50 | 8 | 0.125 |  | < 0.008 | 4 | > 128 | 0.25 | 1 |
